Target: IgE-Tb / FcεRIα-Y131A-AF488 (Homo sapiens, UniProt P01854)
Test: IgE-Tb / FcεRIα-Y131A-AF488 FRET assay (protocol for examples 1 to 233)
Format: binding
Conditions: examples 1 to 233: 5 nM IgE-Tb, 25 nM FcεRIα-Y131A-AF488, incubated 2 hours at room temperature; read-out: Y131A FRET IC50 range
Description: For examples 1 to 233, the assay was conducted according to the following: Each assay reaction was conducted in a volume of 25 μl in a 384-well half-volume plate. 10 point compound serial dilutions (3-fold) were generated in DMSO at a concentration of ×50 that of the final assay concentration (FAC). Compound solutions were then prepared by IgE-Tb diluting 10-fold in assay buffer. For the assay, 5 μl of diluted compound was added to 10 μl of, followed by addition of 10 μl FcεRIα-Y131A-AF488. FRET reagents FACs were 5 nM IgE-Tb, 25 nM FcεRIα-Y131A-AF488. Usually the top FAC of compound in the assay was 10 μM. The final DMSO concentration was 2%. The minimum signal (MIN) was measured by adding 5l unlabelled FcεRIα at 1 μM (FAC=200 nM) to the FRET reagents. The maximum FRET signal (MAX) was measured in wells containing FRET reagents but no compound. The assay was incubated for 2 hours at room temperature, protected from light and evaporation, and with gentle agitation.
Measurement of FRET for each well was carried out by exciting at 330 nm and measuring emission at 495/520 nm using an Envision plate reader (Perkin Elmer). FRET ratio was calculated as follows: Emission at 520/Emission at 495×1000.
The FRET ratio was used for the data analysis.
Z′ was calculated as follows (σ=standard deviation and μ=mean): 1−((3×σMAX)+(3×σMIN))/(μMAX−μMIN)
Z′ above 0.5 was considered a good assay.
Background signal (MIN) was subtracted from all wells. Using the background subtracted values, the percent inhibition by compound in each test-well was calculated as follows: 100−Test-well FRET ratio/MAX FRET ratio×100.
Percent inhibition was plotted against compound concentration. IC50 values for each compound were determined using four parameter logistic fit model using the XLFIT5 software package.

Chain of IgE-Tb / FcεRIα-Y131A-AF488 (P01854 1-427 limits assumed, stated change not applied): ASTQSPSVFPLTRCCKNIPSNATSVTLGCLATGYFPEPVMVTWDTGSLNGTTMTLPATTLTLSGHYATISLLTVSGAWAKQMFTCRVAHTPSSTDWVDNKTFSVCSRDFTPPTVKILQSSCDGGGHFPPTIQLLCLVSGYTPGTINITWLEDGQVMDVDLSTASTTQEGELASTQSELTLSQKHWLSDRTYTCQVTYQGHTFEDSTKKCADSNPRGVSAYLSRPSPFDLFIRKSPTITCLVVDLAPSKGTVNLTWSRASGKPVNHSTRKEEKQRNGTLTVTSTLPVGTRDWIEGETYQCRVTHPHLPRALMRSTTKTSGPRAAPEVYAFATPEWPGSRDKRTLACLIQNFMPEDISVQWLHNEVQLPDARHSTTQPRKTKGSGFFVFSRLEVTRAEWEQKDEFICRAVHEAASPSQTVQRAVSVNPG

SMILES	IC50
N#CN=C(Nc1ccccc1)NC1CCc2sc(NC(=O)C3CC3)c(C(=O)NCC3CC3)c2C1 (stereo not shown) [Example 110, 5-[[N′-Cyano-N-phenyl-carbamimidoyl]amino]-2-(cyclopropanecarbonylamino)-N-(cyclopropylmethyl)-4,5,6,7-tetrahydrobenzothiophene-3-carboxamide]	< 1000 nM
O=C(NCC1CC1)c1c(NC(=O)C2CC2)sc2c1CC(C(=O)Nc1ccncc1)CC2 (stereo not shown) [Example 52, 2-(Cyclopropanecarbonylamino)-N3-(cyclopropylmethyl)-N5-(4-pyridyl)-4,5,6,7-tetrahydrobenzothiophene-3,5-dicarboxamide]	< 1000 nM
Cc1cncc(Nc2nncn2C2CCc3sc(NC(=O)C4CC4)c(C(=O)NCC4CC4)c3C2)c1 (stereo in doubt) [Example 114, (5S)-2-(cyclopropanecarbonylamino)-N-(cyclopropylmethyl)-5-[3-[(5-methyl-3-pyridyl)amino]-1,2,4-triazol-4-yl]-4,5,6,7-tetrahydrobenzothiophene-3-carboxamide]	< 1000 nM
CS(=O)(=O)c1cccc(NC(=O)C2CCc3sc(NC(=O)C4CC4)c(S(=O)(=O)NCC4CC4)c3C2)c1 (stereo not shown) [Example 34, 2-(Cyclopropanecarbonylamino)-3-(cyclopropylmethylsulfamoyl)-N-(3-methylsulfonylphenyl)-4,5,6,7-tetrahydrobenzothiophene-5-carboxamide]	< 1000 nM
Cc1cc(Nc2nncn2[C@H]2CCc3sc(NC(=O)C4CC4)c(C(=O)NCC4CC4)c3C2)n(C2CCOC2)n1 (stereo partly drawn) [Example 223, (5S)-2-(cyclopropanecarbonylamino)-N-(cyclopropylmethyl)-5-[3-[(5-methyl-2-tetrahydrofuran-3-yl-pyrazol-3-yl)amino]-1,2,4-triazol-4-yl]-4,5,6,7-tetrahydrobenzothiophene-3-carboxamide]	< 1000 nM
Cc1cnc(Nc2nncn2C2CCc3sc(NC(=O)C4CC4)c(C(=O)NCC4CC4)c3C2)c(C)n1 (stereo in doubt) [Example 178, (5S)-2-(Cyclopropanecarbonylamino)-N-(cyclopropylmethyl)-5-[3-[(3,5-dimethylpyrazin-2-yl)amino]-1,2,4-triazol-4-yl]-4,5,6,7-tetrahydrobenzothiophene-3-carboxamide]	< 1000 nM
CCNC(=NC#N)N(C)[C@H]1CCc2sc(NC(=O)C3CC3)c(C(=O)NCC3CC3)c2C1 [Example 136, (5S)-5-[(N′-cyano-N-ethyl-carbamimidoyl)-methyl-amino]-2-(cyclopropanecarbonylamino)-N-(cyclopropylmethyl)-4,5,6,7-tetrahydrobenzothiophene-3-carboxamide]	< 1000 nM
CC(C)c1cc(Nc2nncn2[C@H]2CCc3sc(NC(=O)C4CC4)c(C(=O)NCC4CC4)c3C2)n(C)n1 [Example 220, (5S)-2-(cyclopropanecarbonylamino)-N-(cyclopropylmethyl)-5-[3-[(5-isopropyl-2-methyl-pyrazol-3-yl)amino]-1,2,4-triazol-4-yl]-4,5,6,7-tetrahydrobenzothiophene-3-carboxamide]	< 1000 nM
Cc1cc(Nc2nncn2[C@H]2CCc3sc(NC(=O)C4CC4)c(C(=O)NCC4CC4)c3C2)n(C2CC2)n1 [Example 226, (5S)-2-(cyclopropanecarbonylamino)-N-(cyclopropylmethyl)-5-[3-[(2-cyclopropyl-5-methyl-pyrazol-3-yl)amino]-1,2,4-triazol-4-yl]-4,5,6,7-tetrahydrobenzothiophene-3-carboxamide]	< 1000 nM
Cc1cc(Nc2nncn2[C@H]2CCc3sc(NC(=O)C4CC4)c(C(=O)NCC4CC4)c3C2)[nH]n1 [Example 217, (5S)-2-(cyclopropanecarbonylamino)-N-(cyclopropylmethyl)-5-[3-[(3-methyl-1H-pyrazol-5-yl)amino]-1,2,4-triazol-4-yl]-4,5,6,7-tetrahydrobenzothiophene-3-carboxamide]	< 1000 nM

Reference: patent US12018021B2 (UCB Biopharma SRL, priority 2018, dated 2024)
